Source: US20070042976A1, “Method of treating cosmetic and dermatologic conditions by a demethylating agent” (priority 2005, published 2007)
Values after ≈ are worked out from the molar mass of the structure shown. Marks after values point to notes of the source that are not given here.

Experiments:
collagen gene expression = settings: human cancer cells, including fibrosarcomas and breast carcinoma; cited from earlier work
collagen type IV gene = settings: transformed rat liver cells; cited from earlier work
alpha 2 collagen gene [1] = settings: teratocarcinoma F9 cells; cited from earlier work
[2] = tested on: Pro collagen alpha I gene; settings: human rhabdomyosarcoma cells; cited from earlier work
pieces of human skin = experiment: Incorporation of labeled proline into pieces of human skin (collagen biosynthesis, skin organ culture); settings: for Collagen (DPM/mg tissue): control 333
normal human fibroblasts = experiment: Human fibroblasts collagen synthesis assay (14C-proline incorporation, collagenase-labile counts); type: cell-based; parameters: reduction of the amount of collagen synthesized: dose or concentration left out as unconfirmed; settings: for Collagen (DPM/cell) with TGF β 1: with TGF β 1 (10 ng/ml), control 9945 +/− 602; for Collagen (DPM/cell) without TGF β 1: control 5267 +/− 1079
Experimental: Human Fibroblasts Collagen Synthesis Assay
Human fibroblasts were grown in DMEM (10% FCS) in 24-wells plates to approximately 50% confluence. 5-azacytidine (from Sigma) was added for 5 hrs of 37° C. TGF-β1 was added (10 ng/ml) for 2 hours (hrs) at 37° C. Then, L-[U-14C]-proline solution (specific radioactivity 269 mCi/mmol) was added (1.25 μCi/well) and incubated for 20 hrs at 37° C. The cells were then washed with 5 mM proline in PBS and 5 mM proline in 70% methanol and incubated at […] for 20 hrs. […] After 20 hrs, the collagenase treated cultures were centrifuged and a new collagenase solution was added to the cells. The cultures were incubated with the enzyme for an additional 20 hrs. Proline incorporated into protein and released by collagenase treatment is defined as “collagen”. Incorporation of labeled proline into collagen was evaluated by scintillation counting of supernatants. In parallel, the cultures were checked for vitality using a 3-(4, 5-dimethylthiazol-2-yl)-2, 5-diphenyltetrazolium bromide (MTT) reaction. Each concentration of 5-azacytidine was analyzed (n=6), and the effect of 5-azacytidine on collagen synthesis were expressed as averaged DPM per number of viable cells +/− standard deviation.
Human fibroblasts were grown to about 50% confluence and exposed to medium with or without TGF β.

human fibroblasts = experiment: Proliferation of human fibroblasts in culture; type: cell-based; settings: previously found by applicant
[3] = tested on: Human squamous cell carcinoma line (SCL-1) cells; experiment: Cell death in human squamous cell carcinoma line with or without UVB (MTT); type: cell-based; settings: for % Cell Death with UV: UV alone 22 +/− 0.1
Experimental: Determination of Cell Death in Response to 5-azacytidine in Human Squamous Cell Carcinoma Line
Human squamous cell carcinoma line (SCL-1) cells were grown in DMEM medium with 10% FCS. 5-azacytidine was added at the indicated concentrations after the cells reached 100% confluence. The cultures were incubated for 24 hrs at 37° C. and then washed in Hepes buffer (pH=7.4) with isotonic salt and exposed to UVB radiation. Cell death was determined using MTT [3-(4, 5-dimethylthiazol-2-yl)-2, 5-diphenyltetrazolium bromide] kit obtained from Sigma. Each concentration of the drug was tested in six wells and the degree of inhibition (vs. controls of untreated cultures) was given as an average (% cell death +/−standard deviation).
The human squamous cells (SCL-1) were grown to about 50% confluence. The cultures were treated with minimal amount of 5-azacytidine, UV radiation, or the combination and cell viability was quantified. […] The exposure of the cells to UV, in the absence of the drug induced a cytotoxic effect in about 22% of the cells. Together, the combination of both UV and 5-azacytidine induced cell death at about 50% of the cancer cells.

alpha 2 collagen gene [4] = settings: resistant cells such as HaCaT, Hela and HepG2; cited from earlier work
[5] = Azacytidine 4.8 ug/ml, listed as Azacytidine

Q: For `Nc1ncn([C@@H]2O[C@H](CO)[C@@H](O)[C@H]2O)c(=O)n1` [5-azacytidine], which “effect on collagen gene expression” value (collagen gene expression) is on record?
A: increased or reactivated collagen gene expression

Q: And the “effect on transcription of collagen type IV gene” value (collagen type IV gene)?
A: increases transcription of the collagen type IV gene

Q: And the “effect on transcription of alpha 2 collagen gene” value (alpha 2 collagen gene [1])?
A: induces transcription of alpha 2 collagen gene

Q: And the “effect on transcription of Pro collagen alpha I gene” value [2]?
A: transcriptional activation of the Pro collagen alpha I gene

Q: And the “effect on collagen biosynthesis by human skin” value (pieces of human skin)?
A: inhibited collagen biosynthesis in a dose dependent manner

Q: What about the “% Inhibition of collagen” value (pieces of human skin; Azacytidine 6.25 ug/ml) of the same compound?
A: 40%

Q: And the “Collagen (DPM/mg tissue)” value (pieces of human skin; Azacytidine 6.25 ug/ml)?
A: 199 +/− 34* DPM/mg tissue

Q: And the “% Inhibition of collagen” value (pieces of human skin; Azacytidine 25 ug/ml)?
A: 48%

Q: What about the “Collagen (DPM/mg tissue)” value (pieces of human skin; Azacytidine 25 ug/ml) of the same compound?
A: 174 +/− 53* DPM/mg tissue

Q: And the “% Inhibition of collagen” value (pieces of human skin; Azacytidine 100 ug/ml)?
A: 72%

Q: What about the “Collagen (DPM/mg tissue)” value (pieces of human skin; Azacytidine 100 ug/ml) of the same compound?
A: 92 +/− 13* DPM/mg tissue

Q: What about the IC50 (pieces of human skin; Homo sapiens, read-out: IC50 of collagen biosynthesis in human skin) of the same compound?
A: ~25 mg/L (≈ 102 µM)

Q: And the “Collagen (DPM/cell) with TGF β 1” value (normal human fibroblasts; Azacytidine 1 μg/ml)?
A: 8259 +/− 482 DPM/cell

Q: What about the “Collagen (DPM/cell) without TGF β 1” value (normal human fibroblasts; Azacytidine 1 μg/ml) of the same compound?
A: 5306 +/− 717 DPM/cell

Q: And the “Collagen (DPM/cell) with TGF β 1” value (normal human fibroblasts; Azacytidine 5 μg/ml)?
A: 6801 +/− 1359* DPM/cell

Q: And the “Collagen (DPM/cell) without TGF β 1” value (normal human fibroblasts; Azacytidine 5 μg/ml)?
A: 4015 +/− 706* DPM/cell

Q: What about the “Collagen (DPM/cell) with TGF β 1” value (normal human fibroblasts; Azacytidine 25 μg/ml) of the same compound?
A: 5183 +/− 816* DPM/cell

Q: And the “Collagen (DPM/cell) without TGF β 1” value (normal human fibroblasts; Azacytidine 25 μg/ml)?
A: 2323 +/− 139* DPM/cell

Q: What about the IC50 (normal human fibroblasts; Fibroblast, stated as similar to the IC50 in human skin, read-out: IC50 of collagen biosynthesis in cultured human fibroblasts) of the same compound?
A: ~25 mg/L (≈ 102 µM)

Q: And the “effect on TGF β upregulation of collagen biosynthesis” value (normal human fibroblasts; TGF β stimulated fibroblasts)?
A: inhibited in a dose dependent manner the ability of TGF β to upregulate collagen biosynthesis

Q: And the “reduction of the amount of collagen synthesized” value (normal human fibroblasts; concentration of about 25, basal (without TGF β))?
A: approximately 55%

Q: And the “effect on basal collagen produced” value (normal human fibroblasts; without TGF β)?
A: inhibited the collagen produced in a dose dependent manner

Q: And the “effect on proliferation of fibroblasts in culture” value (human fibroblasts)?
A: inhibits the proliferation

Q: What about the “% Cell Death with UV” value ([3]; Azacytidine 0.53 ug/ml) of the same compound?
A: 19 +/− 0.5%

Q: And the “% Cell Death without UVB” value ([3]; Azacytidine 0.53 ug/ml)?
A: 2 +/− 0.7* %

Q: And the “% Cell Death with UV” value ([3]; Azacytidine 1.6 ug/ml)?
A: 21 +/− 0.6%

Q: And the “% Cell Death without UVB” value ([3]; Azacytidine 1.6 ug/ml)?
A: 5 +/− 0.3* %

Q: What about the “% Cell Death with UV” value ([3]; Azacytidine 4.8 ug/ml) of the same compound?
A: about 50%

Q: What about the “% Cell Death with UV” value [3, 5] of the same compound?
A: 50 +/− 0.2%

Q: And the “% Cell Death without UVB” value ([3]; Azacytidine 4.8 ug/ml)?
A: about 29%

Q: What about the “% Cell Death without UVB” value [3, 5] of the same compound?
A: 29 +/− 13* %

Q: And the IC50 ([3]; Homo sapiens, SCL-1, 5-Azacytidine alone (no UV))?
A: 11 mg/L

Q: What about the “combined effect of photo damage and drug on viability” value ([3]; UV plus 5-azacytidine) of the same compound?
A: additive effect

Q: What about the “effect on alpha 2 collagen gene” value (alpha 2 collagen gene [4]) of the same compound?
A: reactivated
